Legend:
[1] = tested on: G68 cells; assay: CellTiter Glo cell viability assay, pharmacological SCD1 inhibition; assay type: cell-based, human; details: vs vehicle (DMSO), FIG. 2C
[2] = tested on: G62 cells; assay: as above; assay type: cell-based, human; details: vs vehicle (DMSO), FIG. 2B
Experimental: For the pharmacological inhibition studies of FIGS. 2B and 2C, an equal number of G62 cells was seeded in 96 wells in the presence of SCD1 inhibitor or vehicle (DMSO) in quadruplicate. Viable cells were quantified at indicated times using CellTiter Glo cell viability assay kit (Promega).

Cc1nnc(-c2ccc(N3CCC(Oc4cc(F)ccc4Cl)CC3)nn2)o1 [CAY10566, 3-[4-(2-chloro-5-fluorophenoxy)-1-piperidinyl]-6-(5-methyl-1,3,4-oxadiazol-2-yl)-pyridazine]
cell viability in the presence or absence of CAY10566 [1]: induction of G68 cell death and growth inhibition
cell viability in the presence or absence of CAY10566 [2]: induction of G62 cell death and growth inhibition

Source: patent publication US20180042925A1, “METHODS FOR TREATING CANCER” (CHILDREN'S HOSPITAL MEDICAL CENTER, priority 2015, published 2018)
